Among the data in ChEMBL document CHEMBL1156829 (Proc Natl Acad Sci U S A, 2008) are EC50 and CC50 values, retold here.

What is called EC50 is the concentration that produces a half-maximal response. By CC50 is commonly meant the concentration at which the toxic effect on the cells reaches its halfway point.

Data set [1] relates to Plasmodium falciparum. As to the kind of experiment: NOVARTIS: Inhibition of Plasmodium falciparum W2 (drug-resistant) proliferation in erythrocyte-based infection assay. Type of data set: functional, organism-based. The note with it: Plasmodium falciparum, W2; read-out: EC50.
A short description of data set [2]: NOVARTIS: Cytotoxicity against human hepatocellular carcinoma cell line (Huh7). The note with it: Huh7 cells (hepatocellular carcinoma cell line). It counts as toxicity, cell-based, Huh-7.
Data set [3] concerns Plasmodium falciparum. The data set is described as follows: NOVARTIS: Inhibition of Plasmodium falciparum 3D7 (drug-susceptible) proliferation in erythrocyte-based infection assay. It counts as functional, organism-based. The note with it: Plasmodium falciparum, 3D7.

In the case of `C=C[C@H]1CN2CC[C@H]1C[C@H]2[C@H](OC(C)=O)c1ccnc2ccccc12`, the EC50 with Plasmodium falciparum [1] came to 0.59 µM; in the data set on Plasmodium falciparum [3] it was 1.46 µM. Also, the half-maximal cytotoxic concentration (CC50) in data set [2] was > 10 µM.
For `CN(C)c1ccc(/C=C2\SC(=Nc3ccc(O)cc3)NC2=O)cc1`, in that order: 0.526 µM, 1.14 µM and 8.59 µM.
For `COc1ccc2nc(C)cc(Nc3ccc(Oc4ccc(Cl)cc4)c(Cl)c3)c2c1`, in that order: 0.571 µM, 0.171 µM and 9.34 µM.
`C/C=C/c1n(C)c2ccccc2[n+]1C`: the EC50 stood at 0.589 µM in the data set on Plasmodium falciparum [1] and 0.501 µM in the data set with Plasmodium falciparum [3]. Further, the 50% cytotoxic concentration (CC50) in data set [2] is > 10 µM.
The matching figures for `O=C(CCl)Nc1ccc(Cl)cc1`: 0.342 µM, 0.544 µM and 5.7 µM.
In the case of `COc1ccc(/C=C\c2nc(=O)c3ccccc3o2)cc1`, the values for the half-maximal effective concentration (EC50) with Plasmodium falciparum [1] and with Plasmodium falciparum [3] were 0.587 µM and 0.697 µM, respectively. In addition, the CC50 in data set [2] was > 10 µM.
For `CC(C)N1CCCC(C(=O)Nc2ccc(-c3nc4ccccc4[nH]3)cc2)C1` (stereo not given), in that order: 0.593 µM, 0.969 µM and > 10 µM.
The matching figures for `COc1cc(OC)cc(C(=O)N2CCN(Cc3cccc(Br)c3)CC2)c1`: 5.92 µM, > 12.5 µM and > 100 µM.
The matching figures for `CCCCCCCn1c2c(c(=N)c3ccccc31)CCC2`: 0.231 µM, 0.277 µM and 3.86 µM.
For `COc1ccccc1NC(=O)CCN1CCCC(C)C1` (stereo not given), the 50% effective concentration (EC50) is > 0.598 µM with Plasmodium falciparum [1] and > 1.65 µM in the data set on Plasmodium falciparum [3]. In addition, the CC50 in data set [2] was > 10 µM.
With `CCN(CC)CCN(C)C1CCc2c(c(C(=O)N3CCCC3)nn2C)C1` (stereo not given), the figures for the EC50 with Plasmodium falciparum [1] and with Plasmodium falciparum [3] were > 0.738 µM and > 0.424 µM, respectively. Besides, in data set [2], the CC50 came to 12.4 µM.
Regarding `CN(C)c1cccc(Nc2cc(-c3ccc(CC(N)C(=O)O)cc3)nc3ccnn23)c1` (stereo not given), the EC50 with Plasmodium falciparum [1] worked out at 0.594 µM; with Plasmodium falciparum [3], 0.6 µM. In data set [2], the CC50 is > 10 µM.
In the case of `CC1CCN(C(=O)C2CCCN(S(=O)(=O)c3ccc4[nH]c(-c5ccccc5)nc4c3)C2)CC1` (stereo not given), the results for the EC50 in the data set with Plasmodium falciparum [1] and with Plasmodium falciparum [3] were 6.03 µM and > 12.5 µM, respectively. Moreover, the CC50 in data set [2] is > 100 µM.
As to `COC(=O)C1=C(C)N(C)C(C)=C(C(=O)OC)C1c1ccc(C)cc1`, the EC50 in the data set on Plasmodium falciparum [1] is > 0.567 µM; with Plasmodium falciparum [3] it was > 0.811 µM. Further, the CC50 in data set [2] is > 9.49 µM.
Turning to `COc1ccc2cc(C(C)=NO)ccc2c1`, the values for the EC50 in the data set with Plasmodium falciparum [1] and with Plasmodium falciparum [3] were > 5.97 µM and > 12.5 µM, respectively. The CC50 in data set [2] is > 100 µM.
As for `COc1ccccc1C(=O)NN=C(C)c1cccnc1`, the EC50 in the data set on Plasmodium falciparum [1] was > 0.602 µM; with Plasmodium falciparum [3] it was > 1.25 µM. In addition, the CC50 in data set [2] is > 10 µM.
For `CSC1=NC(C)(C)CC2(CC(c3ccc(C)cc3)c3cc(Cl)c(O)cc3O2)N1` (stereo not given), in that order: 0.602 µM, 0.993 µM and > 10 µM.
Consider `c1ccc2c(NC3CCCC3)nc(Nc3ccc4c(c3)OCO4)nc2c1`, for which the EC50 in the data set with Plasmodium falciparum [1] turned out to be 0.753 µM; with Plasmodium falciparum [3], 0.525 µM. In data set [2], this compound returned a 50% cytotoxic concentration (CC50) of 12.8 µM.
The matching figures for `C[n+]1c(-c2ccccc2)cc(-c2ccccc2)cc1-c1ccccc1`: > 0.59 µM, > 1.02 µM and > 10 µM.
With `CCCCOc1c2ccccc2nc2ccccc12`, the values for the EC50 in the data set with Plasmodium falciparum [1] and in the data set on Plasmodium falciparum [3] were > 0.592 µM and > 1.25 µM, respectively. In addition, the CC50 in data set [2] was > 10 µM.
The matching figures for `OC(CNc1cccc2ccccc12)Cn1c2ccccc2c2ccccc21` (stereo not given): 0.883 µM, 2.59 µM and 14.9 µM.
Consider `CCCCCN(C(=O)c1cccc([N+](=O)[O-])c1)C(CC)c1nc2ccccc2c(=O)n1-c1ccccc1OC` (stereo not given), for which the EC50 in the data set on Plasmodium falciparum [1] was 0.591 µM; in the data set with Plasmodium falciparum [3], > 1.25 µM. Also, the CC50 in data set [2] was > 10 µM.
For `Cc1oc2c(c1C(=O)N1CCN(C)CC1)C(=O)c1ccccc1C2=O`, in that order: 0.335 µM, 0.829 µM and 5.46 µM.
The matching figures for `CCN(CC)CCCN(Cc1cc2cc(OC)ccc2[nH]c1=O)C(=S)Nc1ccc(C)cc1`: 2.02 µM, 3.41 µM and 33 µM.
Turning to `CC(C)CNC(=O)c1cnc(NCCCn2ccnc2)nc1NCCc1ccccc1`, the EC50 stood at 0.61 µM in the data set on Plasmodium falciparum [1] and 0.6 µM in the data set on Plasmodium falciparum [3]. In addition, in data set [2], the CC50 was > 10 µM.
As to `COc1ccc([N+](=O)[O-])cc1-c1ccc(/C=C(\C#N)c2nn(CCO)c(N)c2C#N)o1`, the EC50 is 0.607 µM in the data set with Plasmodium falciparum [1] and 0.88 µM with Plasmodium falciparum [3]. Also, in data set [2], the half-maximal cytotoxic concentration (CC50) is > 10 µM.
For `COc1ccc(C2=NN(C(=O)CCC(=O)O)C(c3ccccc3F)C2)cc1` (stereo not given), the EC50 in the data set on Plasmodium falciparum [1] was 0.606 µM; with Plasmodium falciparum [3], > 1.25 µM. For the same compound, the CC50 in data set [2] was > 10 µM.
The matching figures for `CCC(C(=O)Nc1sccc1C#N)c1ccccc1` (stereo not given): > 0.612 µM, > 0.971 µM and > 10 µM.
For `COc1ccc2[nH]cc(CCNC(=O)Oc3ccccc3)c2c1`, the results for the EC50 in the data set on Plasmodium falciparum [1] and with Plasmodium falciparum [3] were 0.604 µM and > 1.29 µM, respectively. Moreover, the CC50 in data set [2] was > 10 µM.
The matching figures for `CCOc1ccc2nc(C)cc(Nc3ccc(OCc4ccccc4Cl)cc3)c2c1`: 0.357 µM, 0.142 µM and 5.84 µM.
Take `O=C(NCc1ccco1)C1CCCN(c2cccc3c2C(=O)N(CCc2cccc(F)c2)C3=O)C1` (stereo not given): the EC50 is > 0.611 µM with Plasmodium falciparum [1] and > 1.4 µM in the data set on Plasmodium falciparum [3]. The CC50 in data set [2] was > 10 µM.
Consider `CCOC(=O)c1sc(NC(=O)CSc2nnc(CNC(=O)COc3ccc(Cl)cc3)n2C)c(C(=O)OCC)c1C`, for which the EC50 is > 0.601 µM in the data set on Plasmodium falciparum [1] and 1.08 µM with Plasmodium falciparum [3]. For the same compound, the CC50 in data set [2] is > 10 µM.
For `COc1cc(NC(C)CCCN(Cc2ccccc2OC)C(=O)Nc2ccccc2OC)c2ncccc2c1` (stereo not given), in that order: 0.614 µM, 0.847 µM and > 10 µM.
For `CCOC(=O)c1cnc2c(C)cc(Cl)cc2c1Nc1ccc(OC)c(OC)c1`, the EC50 in the data set with Plasmodium falciparum [1] is > 0.726 µM; with Plasmodium falciparum [3], > 1.25 µM. Also, the cytotoxic concentration (CC50) in data set [2] was > 11.8 µM.
The matching figures for `COc1cc(NC2=CC(=O)C(=O)c3ccccc32)c(OC)cc1Cl`: 0.687 µM, 0.293 µM and 11.2 µM.
The matching figures for `CC(C)(C)c1ccc(CNC(=O)C(Cc2ccc(O)cc2)c2ccccc2)cc1` (stereo not given): 3.27 µM, > 8.68 µM and 53.2 µM.
For `N#Cc1cc(Oc2ccc(-c3cnc4ccccc4n3)cc2)nc2ccccc12`, in that order: 6.15 µM, > 12.5 µM and > 100 µM.
In the case of `c1ccc(-c2cc(NCCCN3CCOCC3)nc(-c3ccccn3)n2)nc1`, the concentration for a half-maximal effect (EC50) in the data set with Plasmodium falciparum [1] was 0.586 µM; in the data set with Plasmodium falciparum [3] it was > 1.01 µM. In addition, the CC50 in data set [2] was > 10 µM.
For `O=C(Cn1c2ccccc2c(=O)c2ccc(Cl)cc21)Nc1cccc(Cl)c1`, in that order: 0.589 µM, 0.934 µM and > 10 µM.
Regarding `CCCCCCN(C(=O)c1ccc(Cl)cc1)C(CC)c1nc2ccccc2c(=O)n1-c1ccccc1OC` (stereo not given), the EC50 was 0.607 µM in the data set with Plasmodium falciparum [1] and 0.952 µM with Plasmodium falciparum [3]. For the same compound, the CC50 in data set [2] was > 10 µM.
The matching figures for `CN(C)C(=O)NCCCCNc1ccnc2cc(Cl)ccc12`: 0.609 µM, 0.992 µM and > 10 µM.
For `CCCCCCN(C(=O)COCc1ccccc1)C(C)c1nc2ccccc2c(=O)n1-c1cccc(Cl)c1C` (stereo not given), in that order: 0.596 µM, 1.17 µM and > 10 µM.
The matching figures for `CC1CCN(c2nncc3ccccc23)CC1`: > 6.05 µM, > 12.5 µM and > 100 µM.
As to `CN(CCCNc1ccnc2cc(Cl)ccc12)S(=O)(=O)c1ccc(Cl)c([N+](=O)[O-])c1`, the concentration for a half-maximal effect (EC50) in the data set on Plasmodium falciparum [1] came to 0.185 µM; in the data set on Plasmodium falciparum [3] it was 0.243 µM. Further, in data set [2], the CC50 was 3.14 µM.
For `O=[N+]([O-])c1ccc(-c2nc3ccccc3n2-c2cc(-c3ccccc3)nn2-c2ccccc2)cc1`, in that order: > 0.611 µM, > 1.62 µM and > 10 µM.
The matching figures for `CCOc1ccccc1-n1c(C(C)N(Cc2ccccc2)C(=O)Nc2ccccc2OC)nc2ccccc2c1=O` (stereo not given): 0.397 µM, 0.484 µM and > 6.65 µM.
For `CCc1cc(C(=O)OC)c(NC(=S)NC(C)c2ccncc2)s1` (stereo not given), in that order: 5.16 µM, 4.55 µM and > 86.9 µM.
Consider `Brc1ccc2[nH]c3nc4ccccc4nc3c2c1`, for which the concentration giving a half-maximal response (EC50) was > 5.92 µM in the data set on Plasmodium falciparum [1] and > 12.5 µM in the data set on Plasmodium falciparum [3]. Also, the CC50 in data set [2] was > 100 µM.
In the case of `Cc1ccc(NC(=O)C(C)Sc2nnc(-c3ccc(O)cc3)o2)cc1` (stereo not given), the 50% effective concentration (EC50) with Plasmodium falciparum [1] is 0.601 µM; with Plasmodium falciparum [3], > 1.25 µM. Moreover, in data set [2], the CC50 was > 10 µM.
The matching figures for `O=C(NCSC1=NCCS1)c1ccccc1`: > 6.03 µM, > 12.5 µM and > 100 µM.
With `CCOC(=O)C1=C(N)OC2=C(C(=O)CC(c3ccccc3)C2)C1c1ccc(Cl)cc1Cl` (stereo not given), the concentration giving a half-maximal response (EC50) with Plasmodium falciparum [1] was > 0.6 µM; in the data set with Plasmodium falciparum [3], > 1.25 µM. Also, the cytotoxic concentration (CC50) in data set [2] is > 10 µM.
For `Cc1cc(C)cc(-n2c(C)cc(/C=C3/SC(=Nc4ccc(Br)cc4)NC3=O)c2C)c1`, in that order: 0.588 µM, 0.325 µM and > 10 µM.
The matching figures for `CC(C)(C)NC(=O)C(c1ccncc1)N(Cc1ccccc1Cl)C(=O)c1ccc(-c2ccccc2)[nH]1` (stereo not given): > 3.99 µM, > 6.47 µM and 67.5 µM.
With `CCCCCN(C(=O)c1ccc2ccccc2c1)C(CC)c1nc2ccccc2c(=O)n1-c1ccc(Cl)cc1C` (stereo not given), the EC50 amounted to 0.587 µM with Plasmodium falciparum [1] and 0.961 µM in the data set with Plasmodium falciparum [3]. The CC50 in data set [2] was > 10 µM.
The matching figures for `Cc1c(C(=O)N2CCC3(CCN(C)C3)C2)cnn1-c1ncc2c(n1)-c1ccccc1SC2` (stereo not given): 0.603 µM, 1.56 µM and > 10 µM.
